Experimental data taken from patent publication US10981932B2, “Macrocyclic indole derivatives” (Bayer Aktiengesellschaft, priority 2016, dated 2021).
Read-outs that look alike come from different tables or passages of the source.

Columns and labels:
[1] = system: SUDHL10; assay: Anti-proliferative effect (CellTiter-Glo, 72 h), SUDHL10; type: cell-based; settings: SUDHL10 cells, antiproliferation, 72 h incubation, median, read-out: Antiproli SUDHL10 [M] (median)
Procedure, shortened: (§1)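 Plate cells alongside a separate day 0 reference plate. Read the reference plate at once with CellTiter-Glo. Incubate treated cells 72 h at 37 °C, then read them the same way by luminescence.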

[2] = system: SUDHL5; assay: Anti-proliferative effect (CellTiter-Glo, 72 h), SUDHL5; type: cell-based; settings: SUDHL5 cells, antiproliferation, 72 h incubation, median, read-out: Antiproli SUDHL5 [M] (median)
Procedure, shortened: as §1

[3] = system: SUDHL10; assay: Induction of cytotoxicity (CellTiter-Glo, 5 h), SUDHL10
[4] = system: SUDHL5; assay: Induction of cytotoxicity (CellTiter-Glo, 5 h), SUDHL5
[5] = molecular target: MCL-1 (Homo sapiens, UniProt Q07820); assay: Protein-protein interaction assay MCL-1/Noxa BH3 peptide (MCL-1 assay), TR-FRET; type: binding; settings: MBP-MCL-1 / Noxa BH3-derived peptide, median
Procedure, shortened: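 Steady-state competition, MCL-1/Noxa BH3, TR-FRET readout; 1 nM MBP-MCL-1, 11-point dose series 0.1 nM–20 μM; overnight 4 °C equilibration; 4-parameter IC50.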

[6] = system: OPM2; assay: Anti-proliferative effect (CellTiter-Glo, 72 h), OPM2; type: cell-based; settings: OPM2 cells, median, read-out: IC50 antiproliferation assay OPM2 [M] (median)
Procedure, shortened: as §1

[7] = system: SUDHL10; assay: Induction of caspase-3/7 activity (Caspase-Glo 3/7), SUDHL10; type: cell-based; settings: caspase-3/7 induction, SUDHL10 cells, 3 h treatment, median
Procedure, shortened: (§2)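 A 3 h, 37 °C compound incubation precedes the Caspase-Glo 3/7 read. After subtracting medium-only signal, EC50s are fitted against the reference compound's maximal caspase induction.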

[8] = system: A2780; assay: Anti-proliferative effect (CellTiter-Glo, 72 h), A2780; type: cell-based; settings: A2780 cells, median, read-out: IC50 antiproliferation assay A2780 [M] (median)
Procedure, shortened: as §1

[9] = system: SUDHL5; assay: Induction of caspase-3/7 activity (Caspase-Glo 3/7), SUDHL5; type: cell-based; settings: caspase-3/7 induction, SUDHL5 cells, 3 h treatment, median
Procedure, shortened: as §2

[10] = Homo sapiens, SU-DHL10, 5 h, read-out: Cytotox SUDHL10 [M] (median), SUDHL10 cells, cytotoxicity induction, CellTiter-Glo, 5 h incubation, median
[11] = Homo sapiens, SU-DHL-5, 5 h, read-out: Cytotox SUDHL5 [M] (median), SUDHL5 cells, cytotoxicity induction, CellTiter-Glo, 5 h incubation, median
[12] = read-out: Cytotox SUDHL10 [M] (median), SUDHL10 cells, cytotoxicity induction, CellTiter-Glo, 5 h incubation, median
[13] = read-out: Cytotox SUDHL5 [M] (median), SUDHL5 cells, cytotoxicity induction, CellTiter-Glo, 5 h incubation, median

MCL-1, sequence (Q07820 whole entry): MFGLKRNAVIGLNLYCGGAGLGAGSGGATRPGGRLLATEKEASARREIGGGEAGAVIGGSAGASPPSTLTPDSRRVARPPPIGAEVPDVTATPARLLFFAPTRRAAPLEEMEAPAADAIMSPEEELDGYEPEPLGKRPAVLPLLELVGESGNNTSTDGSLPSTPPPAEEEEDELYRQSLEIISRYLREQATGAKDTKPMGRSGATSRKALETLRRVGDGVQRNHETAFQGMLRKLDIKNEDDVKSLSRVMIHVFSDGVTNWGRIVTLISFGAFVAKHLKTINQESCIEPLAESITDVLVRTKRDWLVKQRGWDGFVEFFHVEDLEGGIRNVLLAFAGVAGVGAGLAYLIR

CCN(CC)S(=O)(=O)N1CCN(c2ccc(OCc3nn(C)c4c3-c3cccc5c(CCCOc6cccc7ccccc67)c(C(=O)O)n(c35)CCCCOC4)cc2)CC1 (racemic) [Example 1-3, (rac)-3-({4-[4-(diethylsulfamoyl)piperazin-1-yl]phenoxy}methyl)-1-methyl-7-[3-(naphthalen-1-yloxy)propyl]-1,10,11,12,13,15-hexahydropyrazolo[4′,3′:9,10][1,6]oxazacycloundecino[8,7,6-hi]indole-8-carboxylic Acid]
IC50 ([1]; Homo sapiens, SU-DHL10, 72 h): 1.9e-06 M | IC50 ([2]; Homo sapiens, SU-DHL-5, 72 h): 1.27e-06 M | IC50 [3, 10]: 2.64e-06 M | IC50 [4, 11]: 2.68e-06 M | IC50 [5]: 0.00378 µM | IC50 ([6]; Homo sapiens, OPM-2, 72 h): 2.11e-06 M | EC50 ([7]; Homo sapiens, SU-DHL10, 3 h): 2.36 µM | IC50 ([8]; Homo sapiens, A2780, 72 h): 4.86e-06 M | EC50 ([9]; Homo sapiens, SU-DHL-5, 3 h): 2 µM

CN(C)S(=O)(=O)N1CCN(c2ccc(OCc3nn(C)c4c3-c3cccc5c(CCCOc6cccc7ccccc67)c(C(=O)O)n(c35)CCCCOC4)cc2)CC1 (racemic) [Example 1-18, (rac)-3-({4-[4-(dimethylsulfamoyl)piperazin-1-yl]phenoxy}methyl)-1-methyl-7-[3-(naphthalen-1-yloxy)propyl]-1,10,11,12,13,15-hexahydropyrazolo[4′,3′:9,10][1,6]oxazacycloundecino[8,7,6-hi]indole-8-carboxylic Acid]
IC50 ([1]; Homo sapiens, SU-DHL10, 72 h): 1.33e-06 M | IC50 ([2]; Homo sapiens, SU-DHL-5, 72 h): 9.33e-07 M | IC50 [3, 10]: 2.29e-06 M | IC50 [4, 11]: 1.75e-06 M | IC50 ([6]; Homo sapiens, OPM-2, 72 h): 1.57e-06 M | EC50 ([7]; Homo sapiens, SU-DHL10, 3 h): 1.94 µM | IC50 ([8]; Homo sapiens, A2780, 72 h): 8.79e-06 M | EC50 ([9]; Homo sapiens, SU-DHL-5, 3 h): 1.22 µM

Cc1nn(C)c2c1-c1cccc3c(CCCOc4cccc5c4CCCC5)c(C(=O)O)n(c13)CCCCOC2 (racemic) [Example 006, (rac)-1,3-dimethyl-7-[3-(5,6,7,8-tetrahydronaphthalen-1-yloxy)propyl]-1,10,11,12,13,15-hexahydropyrazolo[4′,3′:9,10][1,6]oxazacycloundecino[8,7,6-hi]indole-8-carboxylic Acid]
IC50 ([1]; Homo sapiens, SU-DHL10, 72 h): 4.99e-06 M | IC50 ([2]; Homo sapiens, SU-DHL-5, 72 h): 3.22e-06 M | IC50 [3, 10]: 1.99e-05 M | IC50 [3, 12]: > 3.3e-05 M | IC50 [4, 11]: 7.28e-06 M | IC50 [5]: 0.00831 µM | IC50 ([6]; Homo sapiens, OPM-2, 72 h): 1.9e-05 M | IC50 [6]: > 3.3e-05 M | IC50 [8]: 2.49e-05 M | IC50 ([8]; Homo sapiens, A2780, 72 h): > 3.3e-05 M | EC50 ([9]; Homo sapiens, SU-DHL-5, 3 h): 6.95 µM

Cc1cc(OCCCc2c(C(=O)O)n3c4c(cccc24)-c2c(COc4ccccc4)nn(C)c2CN(C)CCC3)cc(C)c1Cl (single isomer, unassigned) [Example 1-85, 1-[3-(4-chloro-3,5-dimethylphenoxy)propyl]-7,9-dimethyl-11-(phenoxymethyl)-4,5,6,7,8,9-hexahydropyrazolo[3′,4′:7,8][1,5]diazecino[9,10,1-hi]indole-2-carboxylic Acid]
IC50 ([1]; Homo sapiens, SU-DHL10, 72 h): 1.03e-05 M | IC50 ([2]; Homo sapiens, SU-DHL-5, 72 h): 2.5e-05 M | IC50 [3, 10]: > 3.3e-05 M | IC50 [4, 11]: > 3.3e-05 M | IC50 [5]: 0.262 µM | IC50 ([6]; Homo sapiens, OPM-2, 72 h): > 3.3e-05 M | EC50 ([7]; Homo sapiens, SU-DHL10, 3 h): > 33 µM | EC50 ([9]; Homo sapiens, SU-DHL-5, 3 h): > 33 µM

Cc1cc(OCCCc2c(C(=O)O)n3c4c(cccc24)-c2c(COc4ccccc4)nn(C)c2CN(C)CCC3)cc(C)c1Cl (single isomer, unassigned) [Example 1-86, 1-[3-(4-chloro-3,5-dimethylphenoxy)propyl]-7,9-dimethyl-1-(phenoxymethyl)-4,5,6,7,8,9-hexahydropyrazolo[3′,4′:7,8][1,5]diazecino[9,10,1-hi]indole-2-carboxylic Acid]
IC50 [1]: 9.45e-06 M | IC50 [2]: 1.96e-05 M | IC50 [3, 12]: > 3.3e-05 M | IC50 [4, 13]: > 3.3e-05 M | IC50 [5]: 0.278 µM | IC50 [6]: 2.43e-05 M | EC50 [7]: > 33 µM | EC50 [9]: > 33 µM

CN1CCCn2c(C(=O)O)c(CCCOc3cccc4ccccc34)c3cccc(c32)-c2c(COc3ccc(-n4ccccc4=O)cc3)nn(C)c2C1 (single isomer, unassigned; enantiomer 1) [Example 1-115, 7,9-Dimethyl-1-[3-(1-naphthyloxy)propyl]-1-{[4-(2-oxopyridin-1(2H)-yl)phenoxy]methyl}-4,5,6,7,8,9-hexahydropyrazolo[3′,4′:7,8][1,5]diazecino[9,10,1-hi]indole-2-carboxylic Acid (Enantiomer 1)]
IC50 ([1]; Homo sapiens, SU-DHL10, 72 h): 1.24e-05 M | IC50 [2]: 2.13e-05 M | IC50 [3, 10]: > 3.3e-05 M | IC50 [4, 13]: > 3.3e-05 M | IC50 [5]: 0.0479 µM | IC50 ([6]; Homo sapiens, OPM-2, 72 h): > 3.3e-05 M | EC50 ([7]; Homo sapiens, SU-DHL10, 3 h): 32.9 µM | EC50 ([9]; Homo sapiens, SU-DHL-5, 3 h): > 33 µM

CN1CCCn2c(C(=O)O)c(CCCOc3cccc4ccccc34)c3cccc(c32)-c2c(COc3ccc(N4CCN(S(=O)(=O)N(C)C)CC4)cc3)nn(C)c2C1 (single isomer, unassigned; enantiomer 2) [Example 1-16, 11-({4-[4-(dimethylsulfamoyl)piperazin-1-yl]phenoxy}methyl)-7,9-dimethyl-1-[3-(naphthalen-1-yloxy)propyl]-4,5,6,7,8,9-hexahydropyrazolo[3′,4′:7,8][1,5]diazecino[9,10,1-hi]indole-2-carboxylic Acid (Enantiomer 2)]
IC50 [1]: 5.63e-06 M | IC50 [2]: 8.21e-06 M | IC50 [3, 12]: > 3.3e-05 M | IC50 [4, 13]: > 3.3e-05 M | IC50 [5]: 0.0848 µM | IC50 [6]: 1.15e-05 M | EC50 [7]: > 33 µM | EC50 [9]: > 33 µM

CN1CCCn2c(C(=O)O)c(CCCOc3cccc4ccccc34)c3cccc(c32)-c2c(CN3CCOCC3)nn(C)c2C1 (single isomer, unassigned; enantiomer 2) [Example 1-44, (−)-7,9-dimethyl-11-(morpholin-4-ylmethyl)-1-[3-(naphthalen-1-yloxy)propyl]-4,5,6,7,8,9-hexahydropyrazolo[3′,4′:7,8][1,5]diazecino[9,10,1-hi]indole-2-carboxylic Acid (Enantiomer 2)]
IC50 [1]: 7.73e-06 M | IC50 [2]: 6.96e-06 M | IC50 [4, 13]: 1.26e-05 M | IC50 [5]: 0.0177 µM | IC50 [6]: 1.13e-05 M | EC50 [7]: 9.76 µM | IC50 [8]: 1.95e-05 M | EC50 [9]: 12.4 µM

Cc1nn(C)c2c1-c1cccc3c(CCCOc4cccc5ccccc45)c(C(=O)O)n(c13)CCCCN2Cc1ccccc1 [Example 002, (rac)-8-benzyl-9,11-dimethyl-1-[3-(1-naphthyloxy)propyl]-4,5,6,7,8,9-hexahydropyrazolo[4′,3′:4,5][1,6]diazecino[3,2,1-hi]indole-2-carboxylic Acid]
IC50 ([1]; Homo sapiens, SU-DHL10, 72 h): 6.26e-06 M | IC50 ([2]; Homo sapiens, SU-DHL-5, 72 h): 1.42e-05 M | IC50 [3, 10]: 3.18e-05 M | IC50 [4, 11]: 2.12e-05 M | IC50 [5]: 0.353 µM | IC50 ([6]; Homo sapiens, OPM-2, 72 h): > 3.3e-05 M | EC50 ([7]; Homo sapiens, SU-DHL10, 3 h): 22.4 µM | EC50 ([9]; Homo sapiens, SU-DHL-5, 3 h): > 33 µM

Cc1nn(C)c2c1-c1cccc3c(CCCOc4cccc5ccccc45)c(C(=O)O)n(c13)CCCCN2 [Example 003, (rac)-9,11-dimethyl-1-[3-(1-naphthyloxy)propyl]-4,5,6,7,8,9-hexahydropyrazolo[4′,3′:4,5][1,6]diazecino[3,2,1-hi]indole-2-carboxylic Acid]
IC50 ([1]; Homo sapiens, SU-DHL10, 72 h): 1.54e-05 M | IC50 ([2]; Homo sapiens, SU-DHL-5, 72 h): > 3.3e-05 M | IC50 [3, 10]: > 3.3e-05 M | IC50 [4, 11]: > 3.3e-05 M | IC50 [5]: 0.0433 µM | IC50 ([6]; Homo sapiens, OPM-2, 72 h): > 3.3e-05 M | EC50 ([7]; Homo sapiens, SU-DHL10, 3 h): 29.1 µM | EC50 ([9]; Homo sapiens, SU-DHL-5, 3 h): > 33 µM
